Measured values reported in PMC4619705 (PLoS ONE, 2015).
“Also recorded” adds a separate entry of the source.

What was measured:
Assay type in all cases: cell-based
[1] = target: T1, γ2L homomeric receptors (Homo sapiens, UniProt P18507); experiment: Two-electrode voltage clamp of γ2L homomeric receptors expressed in Xenopus oocytes; conditions: γ2L alone
T1 construct: expressed in transfected cells; host or cells: Xenopus laevis oocytes injected with γ2L mRNA alone (high amounts)
Text: (§1) Human complementary DNA (cDNA) of GABAAR α2 subunit (vector: pCMV6-XL5) was purchased from OriGene Technologies (Rockville, MD, USA), and the human β3 (vector: pGEMHE) and γ2L (vector: pCDM8) subunits were generous gifts from Dr. Bjarke Ebert (H. Lundbeck A/S, Valby, Denmark) and Dr. Paul Whiting (Merck, Sharp and Dohme Research Laboratories, Harlow, Essex, UK) respectively. […] Plasmid vectors with the cDNA incorporated were linearised using appropriate restriction endonucleases (α2: SmaI; β3: NheI; γ2L: NotI). Capped RNA transcripts were synthesised from linearised plasmids using the mMessage mMachine T7 transcript kit from Ambion (Austin, TX, USA). Purified messenger RNA (mRNA) was dissolved in nuclease-free water (Ambion, Austin, TX, USA), and its quality was assessed using 1% agarose gel electrophoresis. The concentration of each subunit mRNA was measured using Nanodrop ND-100 UV-Vis spectrophotometer (Thermo Fisher Scientific, North Ryde, NSW, Australia).
(§2) Various combinations of α2, β3 and γ2L subunit mRNAs were mixed to different ratios as stated in the text, and diluted accordingly to a concentration of 5 ng/μL (unless otherwise stated). […] Injected oocytes were stored in ND96 storage solution supplemented with 50 μg/mL gentamycin and tetracycline at 18°C. Two-electrode voltage clamp recordings were performed on oocytes 2–4 days post-injection at room temperature (20–25°C) using a GeneClamp 500B amplifier (ADInstruments, Sydney, NSW, Australia) or a Warner OC-725C Oocyte Clamp (Warner Instrument Corp, Hamden, CT, USA). All experiments were conducted at a holding potential of –60 mV, and data were acquired with a PowerLab 2/25, and LabChart (version 5.0.2) software (ADInstruments, Sydney, NSW, Australia). The recording microelectrodes (0.2–1.1 MΩ) were generated from capillary glass (Harvard Apparatus, Holliston, MA, USA) using a single-stage glass microelectrode puller (Narishige, Tokyo, Japan), and were filled with 3 M KCl solution. The perfusion system was built using a series of polycarbonate, high-density polyethylene two-way stopcocks (Qosina, Edgewood, NY, USA), connected through tubing to the recording chamber (100 μL), where the oocyte was continuously perfused with ND96 recording solution (96 mM NaCl, 2 mM KCl, 1 mM MgCl2, 1.8 mM CaCl2, 5 mM HEPES hemisodium; pH 7.4) at an approximate rate of 5 mL/min.
(§3) Perfusates containing these chemicals were made up fresh before each application. The concentration-response curves of agonists were obtained by exposing oocytes to increasing concentrations of agonists until the currents peaked. […] All experiments were performed using at least two different batches of oocytes.

[2] = target: T2, α2β3γ2L GABAARs (Homo sapiens, UniProt P18507+P28472+P47869); experiment: Two-electrode voltage clamp of recombinant α2β3γ2L GABAARs expressed in Xenopus oocytes
T2 construct: expressed in transfected cells; host or cells: Xenopus laevis oocytes injected with capped mRNA, α2:β3:γ2L 3:1:3
Text: as §1, §2, §3
(§4) Prism (version 5.04; GraphPad Software, La Jolla, CA, USA) was used for data analysis.
(§5) In all cases, we constrained the bottom to 0, and when fitting data to the biphasic model, the Hill slopes were constrained to 1. Statistical comparisons of results for different injection ratios of β3γ2L receptors were performed using ANOVA with Tukey’s post-hoc test. When comparing results from different injection ratios of β3γ2L receptors with α2β3γ2L receptors, the ANOVA Dunnett’s test was used. Pairwise comparisons were performed using Student’s t test. Statistical significance was attained at p < 0.05.

[3] = target: T3, β3 homomeric receptors (Homo sapiens, UniProt P28472); experiment: Two-electrode voltage clamp of β3 homomeric receptors expressed in Xenopus oocytes
T3 construct: expressed in transfected cells; host or cells: Xenopus laevis oocytes injected with β3 mRNA (5 ng/oocyte)
T3 sequence (P28472 26-473): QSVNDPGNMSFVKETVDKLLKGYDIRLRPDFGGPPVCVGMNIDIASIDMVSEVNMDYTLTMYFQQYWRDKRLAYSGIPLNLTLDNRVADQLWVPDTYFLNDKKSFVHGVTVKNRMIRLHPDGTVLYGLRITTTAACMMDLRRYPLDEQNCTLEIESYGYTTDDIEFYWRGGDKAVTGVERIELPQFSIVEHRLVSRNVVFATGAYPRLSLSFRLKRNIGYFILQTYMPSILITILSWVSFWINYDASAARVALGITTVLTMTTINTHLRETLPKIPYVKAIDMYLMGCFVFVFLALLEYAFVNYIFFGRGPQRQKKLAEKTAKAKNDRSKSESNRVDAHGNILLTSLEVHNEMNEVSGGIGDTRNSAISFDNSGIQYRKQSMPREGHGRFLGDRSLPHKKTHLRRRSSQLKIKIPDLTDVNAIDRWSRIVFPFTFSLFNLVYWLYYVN
Text: as §1, §2, §3
Prism (version 5.04; GraphPad Software, La Jolla, CA, USA) was used for data analysis. […]

[4] = target: T4, α2β3 GABAARs (Homo sapiens, UniProt P28472+P47869); experiment: Two-electrode voltage clamp of binary α2β3 GABAARs expressed in Xenopus oocytes
T4 construct: expressed in transfected cells; host or cells: Xenopus laevis oocytes injected with capped mRNA, α2:β3 20:1
T4 sequence (P47869 29-451): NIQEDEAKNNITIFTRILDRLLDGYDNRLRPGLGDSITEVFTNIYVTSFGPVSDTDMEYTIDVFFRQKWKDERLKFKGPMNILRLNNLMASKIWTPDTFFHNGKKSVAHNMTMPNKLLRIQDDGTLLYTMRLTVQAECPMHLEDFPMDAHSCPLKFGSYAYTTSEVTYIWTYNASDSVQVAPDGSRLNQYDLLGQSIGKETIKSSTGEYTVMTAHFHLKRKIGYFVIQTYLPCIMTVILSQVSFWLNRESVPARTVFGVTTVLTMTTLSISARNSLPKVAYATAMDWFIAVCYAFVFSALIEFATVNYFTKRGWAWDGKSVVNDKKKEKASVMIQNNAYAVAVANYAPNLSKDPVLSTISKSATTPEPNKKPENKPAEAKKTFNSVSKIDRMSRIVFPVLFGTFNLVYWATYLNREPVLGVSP
T4 sequence (P28472 26-473): T3 sequence (P28472 26-473)
Text: as §1, §2, §3, §4, §5

T1 sequence (P18507 40-475): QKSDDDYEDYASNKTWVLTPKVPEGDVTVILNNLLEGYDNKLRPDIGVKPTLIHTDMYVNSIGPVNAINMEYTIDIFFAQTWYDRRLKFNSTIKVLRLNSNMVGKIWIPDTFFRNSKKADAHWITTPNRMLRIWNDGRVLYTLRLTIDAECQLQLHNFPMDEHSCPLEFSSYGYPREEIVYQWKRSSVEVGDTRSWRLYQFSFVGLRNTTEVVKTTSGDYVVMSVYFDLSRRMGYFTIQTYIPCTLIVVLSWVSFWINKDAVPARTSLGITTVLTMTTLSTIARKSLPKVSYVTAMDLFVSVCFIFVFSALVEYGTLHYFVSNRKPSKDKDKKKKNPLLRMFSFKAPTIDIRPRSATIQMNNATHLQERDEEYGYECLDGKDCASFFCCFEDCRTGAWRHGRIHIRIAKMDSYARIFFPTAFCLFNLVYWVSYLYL
T2 sequence (P18507 40-475, one chain of several): as the sequence (P18507 40-475) above

| Expression level (current response elicited by GABA) ([2]; α2β3γ2L 3:1:3, 3 mM GABA) | Expression level (current response elicited by GABA) ([3]; β3 alone, 5 ng mRNA/oocyte, 60 mM GABA, -60 mV) | Expression level (current response elicited by GABA) ([4]; α2β3 20:1, 5 ng mRNA, 3 mM GABA, -60 mV) | Compound | 2’MeO6MF activity ([1]; 100 μM) | EC50 [2] | 2’MeO6MF activity ([2]; α2β3γ2L 3:1:3) | Direct activation, % of the 3 mM GABA response ([2]; α2β3γ2L 3:1:3, 300 μM ligand, mean ± SEM) | Enhancement of GABA current (co-application) ([2]; α2β3γ2L 3:1:3, GABA EC3–10 + 100 or 300 μM ligand, data not shown) | 2’MeO6MF activity ([3]; β3 alone, 3–300 μM) | Maximal inhibition of constitutive activity (normalised against oocyte holding current) ([3]; β3 homomers, 300 μM ligand) | 2’MeO6MF activity ([4]; α2β3 20:1, 100 μM) | Elicited current, % of the 3 mM GABA responses ([4]; α2β3 20:1, 100 μM ligand) | Enhancement of GABA current (co-application) ([4]; α2β3 20:1, GABA EC3–10 + 100 or 300 μM ligand, data not shown) | Expression level (current response elicited by GABA) ([1]; 20–35 ng mRNA/oocyte, 60 mM GABA, -60 mV) |
| --- | --- | --- | --- | --- | --- | --- | --- | --- | --- | --- | --- | --- | --- | --- |
|  |  |  | COc1ccccc1-c1cc(=O)c2cc(C)ccc2o1 [2’MeO6MF, 2’-methoxy-6-methylflavone] | not sensitive; also recorded: not responsive; also recorded: No current | ~74 µM | Activation | 8.2 ± 3.6% | No enhancement | Inverse agonism | 54 ± 3.0% | lack of activity; also recorded: Insignificant activation | 1.7 ± 0.35% | No enhancement |  |
| 4300 ± 940 nA | 290 ± 67 nA | 1100 ± 220 nA | NCCCC(=O)O [GABA, γ-aminobutyric acid] |  |  |  |  |  |  |  |  |  |  | not sensitive; also recorded: not responsive; also recorded: No current |
